For assay [1], the system named is Leishmania donovani. The assay is described as follows: Antileishmanial activity against Leishmania donovani in luciferase-amastigote system. The assay is classed as functional, organism-based.
The subject of assay [2] is Leishmania donovani. The assay is described as follows: Antileishmanial activity against Leishmania donovani in luciferase-promastigote system at 10 ug/ml. The assay is classed as functional.

Converted amounts (≈) assume the structure as drawn. The source made the active and inactive calls. No cut-off for these calls is given here.

In general, IC50 refers to the concentration at which inhibition is half-maximal. Broadly, the inhibition is the share of the control response that was lost under treatment.

Take `Fc1ccc(C2NC(N3CCCC3)=NC3=C2CCc2ccccc23)cc1` (configuration not stated): the IC50 in the assay on Leishmania donovani [1] was found to be 4.07 µg/mL (≈ 11.7 µM). In the assay on Leishmania donovani [2], this molecule displayed an inhibition at 10 µg/mL of 99.9%. `Clc1ccc(-c2nc(N3CCCC3)nc3c2CCc2ccccc2-3)c(Cl)c1` registered an inhibition at 10 µg/mL with Leishmania donovani [2] of 77.9%. Still for that read-out and setting: to `Fc1ccc(C2NC(N3CCOCC3)=NC3=C2CCc2ccccc23)cc1` (configuration not stated) belongs 99.6%; to `Clc1ccc(-c2nc(N3CCN(c4ccccn4)CC3)nc3c2CCc2ccccc2-3)c(Cl)c1`, 15.7%. The same measure, in the same setting: to `Clc1ccc(-c2nc(N3CCOCC3)nc3c2CCc2ccccc2-3)c(Cl)c1` belongs 93.1%; to `c1ccc(-c2nc(N3CCOCC3)nc3c2CCc2ccccc2-3)cc1`, 71.5%. `Clc1ccc(C2NC(N3CCCCC3)=NC3=C2CCc2ccccc23)cc1` (configuration not stated) showed an inhibition at 10 µg/mL with Leishmania donovani [2] of 99.6%.

Molecule `Clc1ccc(C2NC(N3CCCC3)=NC3=C2CCc2ccccc23)c(Cl)c1` (configuration not stated) had an inhibition at 10 µg/mL in the assay with Leishmania donovani [2] of 99.8%. Turning to `Fc1ccc(-c2nc(N3CCN(c4ccccn4)CC3)nc3c2CCc2ccccc2-3)cc1`, at 10 µg/mL the inhibition in the assay with Leishmania donovani [2] was 44.9%. Turning to `Clc1ccc(C2NC(N3CCN(c4ccccn4)CC3)=NC3=C2CCc2ccccc23)cc1` (configuration not stated), the IC50 in the assay on Leishmania donovani [1] was determined as 2.65 µg/mL (≈ 5.81 µM). The same molecule came in with an inhibition at 10 µg/mL in the assay with Leishmania donovani [2] of 99.9%. `Fc1ccc(C2NC(N3CCN(c4ccccn4)CC3)=NC3=C2CCc2ccccc23)cc1` (configuration not stated) displayed an IC50 with Leishmania donovani [1] of 3.58 µg/mL (≈ 8.14 µM). In the assay on Leishmania donovani [2], this molecule returned an inhibition at 10 µg/mL of 68.2%.

Consider `Fc1ccc(-c2nc(N3CCCC3)nc3c2CCc2ccccc2-3)cc1`, for which, in the assay on Leishmania donovani [2], 10 µg/mL produced 61.8% inhibition.

As to `Clc1ccc(C2NC(N3CCOCC3)=NC3=C2CCc2ccccc23)c(Cl)c1` (configuration not stated), the inhibition at 10 µg/mL in the assay with Leishmania donovani [2] stood at 99.7%.

`Clc1ccc(-c2nc(N3CCOCC3)nc3c2CCc2ccccc2-3)cc1` gave an inhibition at 10 µg/mL in the assay on Leishmania donovani [2] of 74.8%. As to `c1ccc(C2NC(N3CCOCC3)=NC3=C2CCc2ccccc23)cc1` (configuration not stated), in the assay on Leishmania donovani [2], the inhibition at 10 µg/mL came to 99.9%. The same measure, in the same setting: then `Clc1ccc(-c2nc(N3CCCC3)nc3c2CCc2ccccc2-3)cc1`, with 58.3%. `c1ccc(C2NC(N3CCCCC3)=NC3=C2CCc2ccccc23)cc1` (configuration not stated) displayed an IC50 with Leishmania donovani [1] of 3.48 µg/mL (≈ 10.1 µM). Moreover, 10 µg/mL produced 99.8% inhibition in the assay with Leishmania donovani [2]. Turning to `c1ccc(-c2nc(N3CCCCC3)nc3c2CCc2ccccc2-3)cc1`, the inhibition at 10 µg/mL in the assay on Leishmania donovani [2] was 91.8%. In the assay on Leishmania donovani [2], `Fc1ccc(-c2nc(N3CCOCC3)nc3c2CCc2ccccc2-3)cc1` showed an inhibition at 10 µg/mL of 64.8%. The same measure, in the same setting: to `N=C(N)c1ccc(OCCCCCOc2ccc(C(=N)N)cc2)cc1` [PENTAMIDINE] belongs 100%; to `c1ccc(C2NC(N3CCN(c4ccccn4)CC3)=NC3=C2CCc2ccccc23)cc1` (configuration not stated), 99.4%.

As for `Clc1ccc(C2NC(N3CCN(c4ccccn4)CC3)=NC3=C2CCc2ccccc23)c(Cl)c1` (configuration not stated), in the assay on Leishmania donovani [1], half-maximal inhibition (IC50) required 6.33 µg/mL (≈ 12.9 µM). For the same molecule, the inhibition at 10 µg/mL in the assay on Leishmania donovani [2] turned out to be 99.9%. `Fc1ccc(C2NC(N3CCCCC3)=NC3=C2CCc2ccccc23)cc1` (configuration not stated) gave a half-maximal inhibitory concentration (IC50) in the assay on Leishmania donovani [1] of 3.22 µg/mL (≈ 8.91 µM). The same molecule registered an inhibition at 10 µg/mL in the assay with Leishmania donovani [2] of 99.9%. Take `c1ccc(-c2nc(N3CCN(c4ccccn4)CC3)nc3c2CCc2ccccc2-3)cc1`: the inhibition at 10 µg/mL in the assay with Leishmania donovani [2] is 62.2%.

With `Clc1ccc(-c2nc(N3CCCCC3)nc3c2CCc2ccccc2-3)cc1`, in the assay with Leishmania donovani [2], at 10 µg/mL the inhibition was 53.5%.

In turn, `c1ccc(-c2nc(N3CCCC3)nc3c2CCc2ccccc2-3)cc1` yielded an inhibition at 10 µg/mL with Leishmania donovani [2] of 74.7%. Consider “D-gluconic acid, 2,4:2',4'-O-[oxybis-oxidostibylidyne]bis-, trisodium salt, nonahydrate”, for which the inhibition entry in the assay with Leishmania donovani [2] is “inactive”. In turn, `c1ccc(C2NC(N3CCCC3)=NC3=C2CCc2ccccc23)cc1` (configuration not stated) yielded an inhibition at 10 µg/mL in the assay with Leishmania donovani [2] of 99.8%. In the assay on Leishmania donovani [1], `Clc1ccc(C2NC(N3CCCC3)=NC3=C2CCc2ccccc23)cc1` (configuration not stated) came in with a half-maximal inhibitory concentration (IC50) of 8.95 µg/mL (≈ 24.6 µM). 10 µg/mL produced 96.3% inhibition in the assay on Leishmania donovani [2]. `Fc1ccc(-c2nc(N3CCCCC3)nc3c2CCc2ccccc2-3)cc1` had an inhibition at 10 µg/mL in the assay with Leishmania donovani [2] of 47.8%.

In the assay with Leishmania donovani [2], `Clc1ccc(C2NC(N3CCCCC3)=NC3=C2CCc2ccccc23)c(Cl)c1` (configuration not stated) registered an inhibition at 10 µg/mL of 99.7%. For the molecule `Clc1ccc(C2NC(N3CCOCC3)=NC3=C2CCc2ccccc23)cc1` (configuration not stated), the IC50 in the assay with Leishmania donovani [1] amounted to 5.2 µg/mL (≈ 13.7 µM). This molecule also displayed an inhibition at 10 µg/mL with Leishmania donovani [2] of 98.7%.

As to `Clc1ccc(-c2nc(N3CCN(c4ccccn4)CC3)nc3c2CCc2ccccc2-3)cc1`, 10 µg/mL produced 51.4% inhibition in the assay on Leishmania donovani [2]. For the molecule `Clc1ccc(-c2nc(N3CCCCC3)nc3c2CCc2ccccc2-3)c(Cl)c1`, the inhibition at 10 µg/mL with Leishmania donovani [2] is 95.2%.

(Values after ChEMBL document CHEMBL1155997, “Design and synthesis of novel substituted quinazoline derivatives as antileishmanial agents” (Bioorg Med Chem Lett, 2009).)
